From patent US4216127A, “Enkephalin analogues” (American Home Products Corporation, priority 1979, dated 1980)
Square brackets hold non-standard residues; d marks the D form. Ends that are not written are not given here.

Experiments:
[1] = intravenous administration; more potent than morphine; cited from earlier work
[2] = intracerebral (icv) administration; cited from earlier work
[3] = test system: CF-1 mice; experiment: phenylbenzoquinone induced writhing test (modified Siegmund procedure); type: in vivo
Experimental: Biol. Med. 95 729-731 (1957), in which groups of ten CF-1 mice were administered, subcutaneously, known dosages of N(Me)Tyr--D--Asn--Gly--N(Me)Phe--D--Asn--NH2, as a compound representative of the group of compounds of this invention. Five minutes later, each animal received, i.p., 0.25 ml. of a 0.02 percent phenylbenzoquinone solution. The animals were observed over a ten minute period following the phenylbenzoquinone injection for the presence of writhing. […] The dose-response analysis was then performed according to Litchfiled et al., J. Pharmacol. exp. Therap. 96 99--113(1949). The ED50 for the test compound was 1.0 mg/kg (0.62-1.6) at 30 minutes by subcutaneous administration.

Molecule: Y[dM]GFP-NH2 [IV]
- potency relative to morphine [1]: 5.5 times

Molecule: Tyr--D--Ala--Gly--Phe--Met--NH2 [III]
- analgesic activity after icv administration [2]: potent and prolonged analgesia

Molecule: II: pentapeptide Tyr--Gly--Gly--Phe--X where X=Met, isolated by Hughes et al. (YGGFM; printed: Tyr--Gly--Gly--Phe--Met)
- analgesic activity after icv administration [2]: analgesic activity only after intracerebral (icv) administration

Molecule: CC(=O)O.CN[C@@H](Cc1ccc(O)cc1)C(=O)N[C@H](CC(N)=O)C(=O)NCC(=O)N(C)[C@@H](Cc1ccccc1)C(=O)N[C@H](CC(N)=O)C(N)=O [N-Methyl-L-tyrosyl-D-asparaginyl-glycyl-N-methyl-L-phenylalanyl-D-asparaginyl amide acetate]
- animals in which analgesia was observed ([3]; dose of 10 mg/kg, same procedure, for a period of forty five minutes): 100%
- ED50 (analgesia, absence of writhing) ([3]; subcutaneous administration, at 30 minutes, limits (0.62-1.6), groups of ten CF-1 mice): 1.0 mg/kg
